In the NIST ThermoML archive (doi:10.1021/je0301489):
“And” between values parts separate entries of the source, which are not always exact repeats. Equal values may be shown once.

Experiments:
[1] = refractive index (Na D-line) (dimensionless); settings: 101.33 kPa, Liquid
[2] = 101.33 kPa, Liquid
[3] = xn = mol fraction of the nth substance listed; settings: 101.33 kPa, Liquid
[4] = refractive index (Na D-line) (dimensionless); xn = mol fraction of the nth substance listed; settings: 101.33 kPa, Liquid

C1COCCO1 [1,4-dioxane]
Settings | mass density, 298.15 K [kg/m3] | mass density, 303.15 K [kg/m3] | mass density, 308.15 K [kg/m3] | refractive index, 298.15 K | refractive index, 303.15 K | refractive index, 308.15 K | speed of sound, 298.15 K | viscosity, 298.15 K | viscosity, 303.15 K [mPa·s] | viscosity, 308.15 K [mPa·s]
[1] | – | – | – | 1.4201 and 1.4202 | 1.417 | 1.4144 | – | – | – | –
[2] | 1027.6 | 1021.9 | 1016.2 | – | – | – | 1347 m/s and 1348 m/s | 1.166 mPa·s and 1.167 mPa·s | 1.069 | 0.984

C1COCCO1 [1,4-dioxane] + CCCCCCCCOC(=O)c1ccccc1C(=O)OCCCCCCCC
x1 = 1
Settings | mass density, 298.15 K [kg/m3] | mass density, 303.15 K [kg/m3] | mass density, 308.15 K [kg/m3] | refractive index, 298.15 K | refractive index, 303.15 K | refractive index, 308.15 K | speed of sound, 298.15 K [m/s] | viscosity, 298.15 K [mPa·s] | viscosity, 303.15 K [mPa·s] | viscosity, 308.15 K [mPa·s]
[3] | 1027.6 | 1021.9 | 1016.2 | – | – | – | 1348 | 1.166 | 1.069 | 0.984
[4] | – | – | – | 1.4202 | 1.417 | 1.4144 | – | – | – | –

C1COCCO1 [1,4-dioxane] + CCOC(=O)C(=O)OCC
x1 = 1
Settings | mass density, 298.15 K [kg/m3] | mass density, 303.15 K [kg/m3] | mass density, 308.15 K [kg/m3] | refractive index, 298.15 K | refractive index, 303.15 K | refractive index, 308.15 K | speed of sound, 298.15 K [m/s] | viscosity, 298.15 K [mPa·s] | viscosity, 303.15 K [mPa·s] | viscosity, 308.15 K [mPa·s]
[3] | 1027.6 | 1021.9 | 1016.2 | – | – | – | 1348 | 1.167 | 1.069 | 0.984
[4] | – | – | – | 1.4202 | 1.417 | 1.4144 | – | – | – | –

C1COCCO1 [1,4-dioxane] + CCOC(=O)CC(C)=O
x1 = 1
Settings | mass density, 298.15 K [kg/m3] | mass density, 303.15 K [kg/m3] | mass density, 308.15 K [kg/m3] | refractive index, 298.15 K | refractive index, 303.15 K | refractive index, 308.15 K | speed of sound, 298.15 K [m/s] | viscosity, 298.15 K [mPa·s] | viscosity, 303.15 K [mPa·s] | viscosity, 308.15 K [mPa·s]
[3] | 1027.6 | 1021.9 | 1016.2 | – | – | – | 1347 | 1.166 | 1.069 | 0.984
[4] | – | – | – | 1.4201 | 1.417 | 1.4144 | – | – | – | –

C1COCCO1 [1,4-dioxane] + CCOC(=O)c1ccccc1C(=O)OCC
x1 = 1
Settings | mass density, 298.15 K [kg/m3] | mass density, 303.15 K [kg/m3] | mass density, 308.15 K [kg/m3] | refractive index, 298.15 K | refractive index, 303.15 K | refractive index, 308.15 K | speed of sound, 298.15 K [m/s] | viscosity, 298.15 K [mPa·s] | viscosity, 303.15 K [mPa·s] | viscosity, 308.15 K [mPa·s]
[3] | 1027.6 | 1021.9 | 1016.2 | – | – | – | 1347 | 1.167 | 1.069 | 0.984
[4] | – | – | – | 1.4202 | 1.417 | 1.4144 | – | – | – | –

CCOC(=O)C(=O)OCC [diethyl ethanedioate] + C1COCCO1
Settings | mass density, 298.15 K [kg/m3] | mass density, 303.15 K [kg/m3] | mass density, 308.15 K [kg/m3] | refractive index, 298.15 K | refractive index, 303.15 K | refractive index, 308.15 K | speed of sound, 298.15 K [m/s] | viscosity, 298.15 K [mPa·s] | viscosity, 303.15 K [mPa·s] | viscosity, 308.15 K [mPa·s]
[3], x2 = 0 | 1072.9 | 1066.2 | 1060.8 | – | – | – | 1276 | 1.759 | 1.581 | 1.437
[3], x2 = 0.1094 | 1070.9 | 1064.2 | 1058.1 | – | – | – | 1284 | 1.69 | 1.539 | 1.388
[3], x2 = 0.2069 | 1067.5 | 1061.4 | 1055.3 | – | – | – | 1292 | 1.631 | 1.487 | 1.343
[3], x2 = 0.3098 | 1064.4 | 1058.3 | 1052.1 | – | – | – | 1301 | 1.566 | 1.428 | 1.291
[3], x2 = 0.4009 | 1061.1 | 1055 | 1048.9 | – | – | – | 1310 | 1.505 | 1.375 | 1.245
[3], x2 = 0.4975 | 1057.3 | 1051.1 | 1045 | – | – | – | 1320 | 1.44 | 1.316 | 1.193
[3], x2 = 0.5978 | 1052.8 | 1046.7 | 1040.6 | – | – | – | 1329 | 1.375 | 1.259 | 1.143
[3], x2 = 0.7008 | 1047.7 | 1041.5 | 1035.4 | – | – | – | 1337 | 1.312 | 1.203 | 1.094
[3], x2 = 0.7971 | 1042.1 | 1036.1 | 1029.9 | – | – | – | 1343 | 1.259 | 1.157 | 1.055
[3], x2 = 0.8976 | 1035.5 | 1029.5 | 1023.6 | – | – | – | 1347 | 1.206 | 1.111 | 1.016
[4], x2 = 0 | – | – | – | 1.4084 | 1.406 | 1.4034 | – | – | – | –
[4], x2 = 0.1094 | – | – | – | 1.4092 | 1.4068 | 1.4043 | – | – | – | –
[4], x2 = 0.2069 | – | – | – | 1.4101 | 1.4077 | 1.4052 | – | – | – | –
[4], x2 = 0.3098 | – | – | – | 1.4112 | 1.4087 | 1.4062 | – | – | – | –
[4], x2 = 0.4009 | – | – | – | 1.4119 | 1.4094 | 1.407 | – | – | – | –
[4], x2 = 0.4975 | – | – | – | 1.4129 | 1.4106 | 1.4084 | – | – | – | –
[4], x2 = 0.5978 | – | – | – | 1.4144 | 1.4118 | 1.409 | – | – | – | –
[4], x2 = 0.7008 | – | – | – | 1.4157 | 1.4132 | 1.4106 | – | – | – | –
[4], x2 = 0.7971 | – | – | – | 1.417 | 1.4145 | 1.412 | – | – | – | –
[4], x2 = 0.8976 | – | – | – | 1.4183 | 1.4158 | 1.4132 | – | – | – | –

CCOC(=O)c1ccccc1C(=O)OCC [diethyl phthalate] + C1COCCO1
Settings | mass density, 298.15 K [kg/m3] | mass density, 303.15 K [kg/m3] | mass density, 308.15 K [kg/m3] | refractive index, 298.15 K | refractive index, 303.15 K | refractive index, 308.15 K | speed of sound, 298.15 K [m/s] | viscosity, 298.15 K [mPa·s] | viscosity, 303.15 K [mPa·s] | viscosity, 308.15 K [mPa·s]
[3], x2 = 0 | 1115.1 | 1110.2 | 1105.6 | – | – | – | 1446 | 7.926 | 6.129 | 4.893
[3], x2 = 0.1133 | 1110.7 | 1105.8 | 1101 | – | – | – | 1435 | 6.52 | 5.327 | 4.134
[3], x2 = 0.2083 | 1106.5 | 1101.5 | 1096.6 | – | – | – | 1427 | 5.536 | 4.567 | 3.597
[3], x2 = 0.3086 | 1101.4 | 1096.3 | 1091.4 | – | – | – | 1418 | 4.593 | 3.813 | 3.032
[3], x2 = 0.409 | 1095.5 | 1090.4 | 1085.3 | – | – | – | 1408 | 3.793 | 3.18 | 2.568
[3], x2 = 0.5026 | 1089.1 | 1084 | 1078.7 | – | – | – | 1399 | 3.122 | 2.637 | 2.151
[3], x2 = 0.5985 | 1081.4 | 1076.1 | 1070.9 | – | – | – | 1390 | 2.544 | 2.184 | 1.824
[3], x2 = 0.702 | 1071.6 | 1066.1 | 1060.8 | – | – | – | 1380 | 2.037 | 1.753 | 1.468
[3], x2 = 0.8001 | 1060.2 | 1054.7 | 1049.2 | – | – | – | 1370 | 1.641 | 1.436 | 1.23
[3], x2 = 0.8975 | 1046.3 | 1040.7 | 1035 | – | – | – | 1359 | 1.319 | 1.18 | 1.042
[4], x2 = 0 | – | – | – | 1.5001 | 1.4978 | 1.4958 | – | – | – | –
[4], x2 = 0.1133 | – | – | – | 1.4962 | 1.494 | 1.4917 | – | – | – | –
[4], x2 = 0.2083 | – | – | – | 1.4924 | 1.4902 | 1.4882 | – | – | – | –
[4], x2 = 0.3086 | – | – | – | 1.4882 | 1.486 | 1.4837 | – | – | – | –
[4], x2 = 0.409 | – | – | – | 1.4826 | 1.4805 | 1.4783 | – | – | – | –
[4], x2 = 0.5026 | – | – | – | 1.4768 | 1.4747 | 1.4724 | – | – | – | –
[4], x2 = 0.5985 | – | – | – | 1.47 | 1.4676 | 1.4653 | – | – | – | –
[4], x2 = 0.702 | – | – | – | 1.4608 | 1.4585 | 1.4564 | – | – | – | –
[4], x2 = 0.8001 | – | – | – | 1.4504 | 1.4481 | 1.4457 | – | – | – | –
[4], x2 = 0.8975 | – | – | – | 1.4376 | 1.435 | 1.4326 | – | – | – | –
